Measurements taken from ChEMBL document CHEMBL1201862, “PubChem BioAssay data set” (2004).
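How tested: cells in 96-well plates exposed to compound for 48 hours at five concentrations. GI50 marks 50% less growth.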 Active and inactive are the calls of the source. Rule as the data show it: active = GI50 up to about 1.1 µM and inactive = higher.

Legend:
Assay in all cases: inhibition of tumour cell growth, NCI panel, 48 h
RXF 393 = tested on: RXF 393
ACHN = tested on: ACHN
UACC-62 = tested on: UACC-62
NCI/ADR-RES = tested on: NCI/ADR-RES
SK-MEL-28 = tested on: SK-MEL-28
HT-29 = tested on: HT-29
RPMI-8226 = tested on: RPMI-8226
OVCAR-8 = tested on: OVCAR-8
HCC 2998 = tested on: HCC 2998
U-251 = tested on: U-251
UACC-257 = tested on: UACC-257
K562 = tested on: K562
SNB-19 = tested on: SNB-19
TK-10 = tested on: TK-10
KM12 = tested on: KM12
NCI-H226 = tested on: NCI-H226
MDA-MB-435 = tested on: MDA-MB-435
MDA-MB-231 = tested on: MDA-MB-231
PC-3 = tested on: PC-3
BT-549 = tested on: BT-549

Measured: GI50

O=NN(CCCl)C(=O)N[C@H]1CC[C@@H](C(=O)O)CC1
inactive: RXF 393 > 100 µM | ACHN 65.6 µM | UACC-62 21.3 µM | NCI/ADR-RES > 100 µM | SK-MEL-28 > 100 µM | HT-29 > 100 µM | RPMI-8226 46.3 µM | OVCAR-8 > 100 µM | HCC 2998 > 100 µM | U-251 40.9 µM | UACC-257 > 100 µM | K562 91 µM | SNB-19 70 µM | TK-10 > 100 µM | KM12 > 100 µM | NCI-H226 > 100 µM

c1ccc2c(c1)c1c(n2CCOCCN2CCCC2)CCCC1
inactive: ACHN 20.1 µM | UACC-62 18.6 µM | NCI/ADR-RES 19 µM | SK-MEL-28 16 µM | HT-29 20 µM | RPMI-8226 18.2 µM | MDA-MB-435 18.9 µM | OVCAR-8 22.4 µM | HCC 2998 16.6 µM | U-251 13.1 µM | UACC-257 22.4 µM | K562 15 µM | MDA-MB-231 16.4 µM | TK-10 19.5 µM | KM12 > 10 µM | PC-3 18.6 µM | NCI-H226 22.4 µM

Cc1ccc(NC2=NCCO2)c2c1CCC2
inactive: RXF 393 26.8 µM | ACHN 85.3 µM | UACC-62 30.7 µM | NCI/ADR-RES 20.4 µM | SK-MEL-28 32.8 µM | HT-29 33.3 µM | RPMI-8226 34.8 µM | MDA-MB-435 20.5 µM | OVCAR-8 35.1 µM | HCC 2998 32 µM | U-251 39.4 µM | K562 26.7 µM | SNB-19 58.9 µM | MDA-MB-231 19.7 µM | TK-10 > 100 µM | KM12 30.3 µM | PC-3 25.4 µM | NCI-H226 32.4 µM

Oc1ncnc2c1nnn2CCCCCCCCCCCCn1nnc2c(O)ncnc21
inactive: RXF 393 24.3 µM | ACHN 32.3 µM | UACC-62 36.9 µM | NCI/ADR-RES > 100 µM | SK-MEL-28 > 93.1 µM | HT-29 > 100 µM | RPMI-8226 > 100 µM | MDA-MB-435 > 100 µM | OVCAR-8 41.5 µM | HCC 2998 > 78.7 µM | BT-549 28.8 µM | U-251 21.5 µM | UACC-257 20.3 µM | K562 > 100 µM | SNB-19 20.2 µM | TK-10 24.4 µM | KM12 > 100 µM | PC-3 > 100 µM | NCI-H226 32.6 µM

O=C(O)c1cccc(S(=O)(=O)NN2C(=O)CSC2c2ccccc2)c1 (stereo not given)
inactive: RXF 393 > 100 µM | ACHN > 100 µM | UACC-62 > 100 µM | SK-MEL-28 > 100 µM | HT-29 > 100 µM | RPMI-8226 35.3 µM | MDA-MB-435 > 100 µM | OVCAR-8 > 100 µM | HCC 2998 > 100 µM | BT-549 > 100 µM | U-251 > 100 µM | UACC-257 > 100 µM | K562 > 100 µM | SNB-19 > 100 µM | MDA-MB-231 > 100 µM | TK-10 > 100 µM | KM12 > 100 µM | PC-3 > 100 µM | NCI-H226 > 100 µM

Cc1cc2nc3c(C#N)c(-c4ccccc4)cc(Nc4ccc(F)cc4)n3c2cc1C
inactive: RXF 393 14.4 µM | ACHN 16.4 µM | NCI/ADR-RES 8.11 µM | SK-MEL-28 46.2 µM | HT-29 28.6 µM | RPMI-8226 > 100 µM | MDA-MB-435 > 100 µM | OVCAR-8 10.7 µM | BT-549 22.6 µM | U-251 4.33 µM | UACC-257 7.5 µM | MDA-MB-231 15.1 µM | TK-10 12.4 µM | KM12 86.7 µM | NCI-H226 27.2 µM

CC1(C)O[C@@H](CO)[C@H]([C@@]23OC[C@H]4OC(C)(C)OC4[C@@H]2OC(C)(C)O3)O1 (stereo not given in full)
inactive: RXF 393 > 100 µM | ACHN > 100 µM | NCI/ADR-RES > 100 µM | SK-MEL-28 > 100 µM | HT-29 > 100 µM | RPMI-8226 > 100 µM | MDA-MB-435 > 100 µM | OVCAR-8 > 100 µM | HCC 2998 > 100 µM | U-251 > 100 µM | K562 > 100 µM | SNB-19 > 100 µM | MDA-MB-231 > 100 µM | KM12 > 100 µM | PC-3 > 100 µM | NCI-H226 > 100 µM

Cc1cn(C2CC(n3cncn3)C(C(C)O)O2)c(=O)[nH]c1=O (stereo not given)
inactive: RXF 393 > 100 µM | ACHN > 100 µM | UACC-62 > 100 µM | SK-MEL-28 > 100 µM | HT-29 > 100 µM | RPMI-8226 > 100 µM | OVCAR-8 > 100 µM | HCC 2998 > 100 µM | U-251 > 100 µM | UACC-257 > 100 µM | K562 > 100 µM | SNB-19 > 100 µM | TK-10 > 100 µM | KM12 > 100 µM | NCI-H226 > 100 µM

N#Cc1c2c(c(Nc3cccc(C(F)(F)F)c3)n3c1nc1ccccc13)CCC2
inactive: RXF 393 > 100 µM | ACHN > 100 µM | NCI/ADR-RES > 100 µM | SK-MEL-28 > 100 µM | HT-29 > 100 µM | RPMI-8226 > 100 µM | MDA-MB-435 > 100 µM | OVCAR-8 > 100 µM | BT-549 60.7 µM | U-251 > 100 µM | UACC-257 > 100 µM | MDA-MB-231 > 100 µM | TK-10 > 100 µM | KM12 > 100 µM | NCI-H226 > 100 µM

O=C(Cc1ccccc1)NNc1nc(NNC(=O)c2ccncc2)nc(Nc2ccccc2)n1
inactive: UACC-62 > 10 µM | NCI/ADR-RES > 10 µM | SK-MEL-28 > 10 µM | HT-29 > 10 µM | RPMI-8226 > 10 µM | OVCAR-8 > 10 µM | HCC 2998 > 10 µM | BT-549 > 10 µM | U-251 > 10 µM | UACC-257 > 10 µM | K562 > 10 µM | MDA-MB-231 > 10 µM | TK-10 > 10 µM | KM12 > 10 µM

OC1c2ccccc2CC12Cc1ccccc1C2 (stereo not given)
inactive: RXF 393 48.3 µM | ACHN > 100 µM | NCI/ADR-RES 54.7 µM | SK-MEL-28 > 100 µM | HT-29 86.7 µM | RPMI-8226 48.2 µM | MDA-MB-435 > 100 µM | OVCAR-8 > 100 µM | HCC 2998 > 100 µM | U-251 > 100 µM | UACC-257 44.9 µM | K562 72.4 µM | SNB-19 > 100 µM | MDA-MB-231 > 100 µM | TK-10 > 100 µM | KM12 > 100 µM | PC-3 > 100 µM
active: NCI-H226 0.35 µM

Cn1nc2n(c1=O)CCCN2
inactive: RXF 393 > 100 µM | ACHN > 100 µM | NCI/ADR-RES > 100 µM | SK-MEL-28 > 100 µM | HT-29 > 100 µM | RPMI-8226 > 100 µM | MDA-MB-435 > 100 µM | OVCAR-8 > 100 µM | HCC 2998 > 100 µM | U-251 > 100 µM | UACC-257 > 100 µM | K562 > 100 µM | SNB-19 > 100 µM | MDA-MB-231 > 100 µM | TK-10 > 100 µM | KM12 > 100 µM | PC-3 > 100 µM | NCI-H226 > 100 µM

c1ccc(/N=c2/sc3ccccc3s/c2=N/c2ccccc2)cc1
inactive: RXF 393 1.82 µM | ACHN 1.66 µM | UACC-62 1.36 µM | NCI/ADR-RES 2.67 µM | SK-MEL-28 1.81 µM | HT-29 2.08 µM | RPMI-8226 4.57 µM | MDA-MB-435 1.9 µM | OVCAR-8 1.89 µM | HCC 2998 1.84 µM | U-251 1.86 µM | UACC-257 3.72 µM | K562 3.78 µM | SNB-19 4.71 µM | MDA-MB-231 2.21 µM | TK-10 4.08 µM | KM12 1.99 µM | PC-3 12.8 µM | NCI-H226 2.88 µM

CC(=O)OC1[C@H](OC(C)=O)C2=C(C)[C@@H](OC(C)=O)C[C@@]2(C(C)(C)O)[C@@H](OC(C)=O)[C@H]2[C@@]1(C)[C@@H](OC(C)=O)CC(OC(C)=O)[C@]21CO1 (stereo not given in full)
inactive: RXF 393 > 100 µM | ACHN > 100 µM | UACC-62 > 100 µM | SK-MEL-28 > 100 µM | HT-29 > 100 µM | RPMI-8226 > 100 µM | MDA-MB-435 > 100 µM | OVCAR-8 > 100 µM | U-251 > 100 µM | UACC-257 > 100 µM | K562 > 100 µM | SNB-19 > 100 µM | TK-10 > 100 µM | KM12 > 100 µM | PC-3 > 100 µM | NCI-H226 > 100 µM

CC(=O)NCC1(c2ccccc2)CCN(CC2COc3ccccc3O2)CC1 (stereo not given) [ACOXATRINE]
inactive: RXF 393 > 100 µM | ACHN > 100 µM | UACC-62 > 100 µM | NCI/ADR-RES > 100 µM | SK-MEL-28 > 100 µM | HT-29 39.4 µM | RPMI-8226 > 100 µM | MDA-MB-435 > 100 µM | OVCAR-8 > 100 µM | HCC 2998 > 100 µM | U-251 > 100 µM | UACC-257 > 100 µM | K562 > 100 µM | SNB-19 > 100 µM | MDA-MB-231 > 100 µM | TK-10 > 100 µM | KM12 > 100 µM | PC-3 > 100 µM | NCI-H226 > 100 µM

CC(C)(C)NCC(O)COc1cccc2[nH]c(C#N)cc12 (stereo not given) [CYANOPINDOLOL]
inactive: ACHN > 100 µM | UACC-62 > 100 µM | NCI/ADR-RES > 100 µM | SK-MEL-28 > 100 µM | HT-29 > 100 µM | RPMI-8226 > 100 µM | MDA-MB-435 > 100 µM | OVCAR-8 > 100 µM | BT-549 > 100 µM | U-251 > 100 µM | SNB-19 > 100 µM | MDA-MB-231 > 100 µM | TK-10 84.5 µM | KM12 > 100 µM | PC-3 > 100 µM | NCI-H226 > 100 µM
